Here are results for 53 molecules from the RepoRT retention time repository (doi:10.1021/acs.jafc.0c00879).

The data set can be described thus: RP, Waters ACQUITY UPLC HSS T3, 150 × 2.1 mm, 1.8 µm, 40 °C, 0.28 mL/min, estimated dead time 1.2 min; A: water + 0.1% formic acid; B: methanol + 0.1% formic acid; gradient (min/%B) 0/0 1/0 3/10 18/40 21/100 25.5/100. The note with it: stereoisomer not certain.
For `O=c1[nH]c(=O)c2[nH]cnc2[nH]1`, the LC retention time was 3.94 min.

For the molecule `O=C(C=Cc1ccc(O)c(O)c1)OC(C(=O)O)C(O)C(=O)O` (stereo not drawn), the LC retention time is 7.71 min.

Turning to `COc1cc(-c2[o+]c3cc(O)cc(O)c3cc2OC2OC(COC(=O)C=Cc3ccc(O)cc3)C(O)C(O)C2O)ccc1O` (stereo not drawn), the LC retention time is 20.4 min.

`O=C(C=Cc1ccc(O)cc1)OCC1OC(Oc2cc3c(O)cc(O)cc3[o+]c2-c2cc(O)c(O)c(O)c2)C(O)C(O)C1O` (stereo not drawn): the LC retention time was 20 min.

Consider `O=S(=O)(O)c1[nH]c2ccccc2c1CCO`, for which the LC retention time is 10.5 min.

As for `COc1cc(-c2[o+]c3cc(O)cc(O)c3cc2OC2OC(CO)C(O)C(O)C2O)cc(OC)c1O` (stereo not drawn), the LC retention time is 14.8 min.

As for `COc1cc(-c2[o+]c3cc(O)cc(O)c3cc2OC2OC(COC(=O)C=Cc3ccc(O)cc3)C(O)C(O)C2O)cc(O)c1O` (stereo not drawn), the LC retention time is 20.2 min.

As to `CC(=O)OCC1OC(Oc2cc3c(O)cc(O)cc3[o+]c2-c2cc(O)c(O)c(O)c2)C(O)C(O)C1O` (stereo not drawn), the LC retention time was 16.9 min.

With `O=C1c2c(O)cc(O)cc2OC(c2ccc(O)c(OC3OC(C(=O)O)C(O)C(O)C3O)c2)C1O` (stereo not drawn), the LC retention time was 19 min.

Turning to `NC(CCC(=O)NC(CS)C(=O)NCC(=O)O)C(=O)O` (stereo not drawn), the LC retention time was 2.46 min.

On to `O=c1cc2oc(-c3ccc(O)c(O)c3)c(OC3OC(COC(=[OH+])C=Cc4ccc(O)cc4)C(O)C(O)C3O)cc-2c(O)c1` (stereo not drawn), for which the LC retention time was 20.2 min.

As to `OCC1OC(Oc2cc3c(O)cc(O)cc3[o+]c2-c2cc(O)c(O)c(O)c2)C(O)C(O)C1O` (stereo not drawn), the LC retention time is 11.3 min.

On to `COc1cc(-c2oc3cc(O)cc(O)c3c(=O)c2O)cc(O)c1O`, for which the LC retention time was 20.9 min.

For the molecule `COc1cc(-c2oc3cc(O)cc(O)c3c(=O)c2OC2OC(CO)C(O)C(O)C2O)ccc1O` (stereo not drawn), the LC retention time was 20.3 min.

For the molecule `NC(Cc1ccc(O)cc1)C(=O)O` (stereo not drawn), the LC retention time was 4.05 min.

Take `COc1cc(-c2[o+]c3cc(O)cc(O)c3cc2OC2OC(COC(=O)C=Cc3ccc(O)cc3)C(O)C(O)C2O)cc(OC)c1O` (stereo not drawn): the LC retention time is 20.3 min.

Regarding `CC(C)C(N)C(=O)O` (stereo not drawn), the LC retention time is 2.07 min.

As for `COc1cc(-c2oc3cc(O)cc(O)c3c(=O)c2OC2OC(CO)C(O)C(O)C2O)cc(O)c1O` (stereo not drawn), the LC retention time is 19.6 min.

As to `O=C(OC1Cc2c(O)cc(O)cc2OC1c1cc(O)c(O)c(O)c1)c1cc(O)c(O)c(O)c1` (stereo not drawn), the LC retention time was 15.2 min.

For `COc1cc(-c2oc3cc(=[OH+])cc4occc(c2OC2OC(CO)C(O)C(O)C2O)c43)cc(OC)c1O` (stereo not drawn), the LC retention time is 17.7 min.

Consider `O=c1c(O)c(-c2ccc(O)cc2)oc2cc(O)cc(O)c12`, for which the LC retention time is 21.2 min.

Regarding `O=C1c2c(O)cc(O)cc2OC(c2ccc(O)cc2)C1O` (stereo not drawn), the LC retention time is 18.6 min.

With `O=c1c(OC2OC(CO)C(O)C(O)C2O)c(-c2ccc(O)cc2)oc2cc(O)cc(O)c12` (stereo not drawn), the LC retention time is 20.2 min.

For the molecule `O=C(OC1Cc2c(O)cc(O)cc2OC1c1ccc(O)c(O)c1)c1cc(O)c(O)c(O)c1` (stereo not drawn), the LC retention time is 14.4 min.

For `COc1cc(-c2oc3cc(O)cc(O)c3c(=O)c2OC2OC(CO)C(O)C(O)C2O)cc(OC)c1O` (stereo not drawn), the LC retention time is 20.4 min.

Regarding `CC(C)(CO)C(O)C(=O)NCCC(=O)O` (stereo not drawn), the LC retention time was 7.04 min.

On to `O=c1oc2c(O)c(O)cc3c(=O)oc4c(O)c(O)cc1c4c23`, for which the LC retention time is 19.8 min.

In the case of `O=c1c(OC2OC(CO)C(O)C(O)C2O)c(-c2cc(O)c(O)c(O)c2)oc2cc(O)cc(O)c12` (stereo not drawn), the LC retention time was 17 min.

Consider `Oc1ccc(C=Cc2cc(O)cc(O)c2)cc1`, for which the LC retention time is 20.4 min.

On to `O=C(O)C1OC(Oc2c(-c3cc(O)c(O)c(O)c3)oc3cc(O)cc(O)c3c2=O)C(O)C(O)C1O` (stereo not drawn), for which the LC retention time is 16.6 min.

Take `NC(Cc1c[nH]c2ccccc12)C(=O)O` (stereo not drawn): the LC retention time was 8.26 min.

Turning to `O=C(O)C1OC(Oc2c(-c3ccc(O)cc3)oc3cc(O)cc(O)c3c2=O)C(O)C(O)C1O` (stereo not drawn), the LC retention time was 20.2 min.

In the case of `COc1cc(-c2oc3cc(O)cc(O)c3c(=O)c2O)cc(OC)c1O`, the LC retention time was 21.3 min.

For `O=C(O)c1cc(O)c(O)c(O)c1`, the LC retention time is 6.83 min.

With `O=C(O)C(O)Cc1c[nH]c2ccccc12` (stereo not drawn), the LC retention time is 15.3 min.

In the case of `NC(Cc1ccccc1)C(=O)O` (stereo not drawn), the LC retention time is 5.95 min.

Consider `CC(C=CC1(O)C(C)=CC(=O)CC1(C)C)=CC(=O)O` (stereo not drawn), for which the LC retention time is 20.6 min.

For the molecule `COc1cc(-c2[o+]c3cc(O)cc(O)c3cc2OC2OC(CO)C(O)C(O)C2O)ccc1O` (stereo not drawn), the LC retention time was 14.6 min.

Consider `COc1cc(-c2[o+]c3cc(O)cc(O)c3cc2OC2OC(COC(C)=O)C(O)C(O)C2O)ccc1O` (stereo not drawn), for which the LC retention time was 19.5 min.

Regarding `Cc1cc2nc3c(=O)[nH]c(=O)nc-3n(CC(O)C(O)C(O)CO)c2cc1C` (stereo not drawn), the LC retention time is 14.6 min.

On to `O=C(O)C1CCCN1` (stereo not drawn), for which the LC retention time was 1.49 min.

`COc1cc(-c2oc3cc(O)cc(O)c3c(=O)c2O)ccc1O`: the LC retention time is 21.2 min.

Regarding `COc1cc(-c2[o+]c3cc(O)cc(O)c3cc2OC2OC(COC(C)=O)C(O)C(O)C2O)cc(OC)c1O` (stereo not drawn), the LC retention time was 19.6 min.

With `CC(=O)OCC1OC(Oc2cc3c(O)cc(O)cc3[o+]c2-c2ccc(O)c(O)c2)C(O)C(O)C1O` (stereo not drawn), the LC retention time is 18.1 min.

Turning to `CCOC(=O)c1cc(O)c(O)c(O)c1`, the LC retention time was 14.2 min.

For the molecule `Oc1cc(O)c2c(c1)OC1(c3ccc(O)c(O)c3)Oc3cc(O)c4c(c3C2C1O)OC(c1ccc(O)c(O)c1)C(O)C4` (stereo not drawn), the LC retention time is 8.34 min.

Consider `COc1cc(-c2[o+]c3cc(O)cc(O)c3cc2OC2OC(COC(C)=O)C(O)C(O)C2O)cc(O)c1O` (stereo not drawn), for which the LC retention time is 18.4 min.

Regarding `CCOC(=O)C=Cc1ccc(O)c(O)c1`, the LC retention time was 20.7 min.

For the molecule `COc1cc(C=CC(=O)OC(C(=O)O)C(O)C(=O)O)ccc1O` (stereo not drawn), the LC retention time is 10.9 min.

As to `O=c1c(O)c(-c2ccc(O)c(O)c2)oc2cc(O)cc(O)c12`, the LC retention time is 20.8 min.

As to `COc1cc(-c2oc3cc(=O)cc4oc(O)c(C=[OH+])c(c2OC2OC(CO)C(O)C(O)C2O)c43)cc(OC)c1O` (stereo not drawn), the LC retention time is 18.6 min.

Turning to `CC(C)CC(N)C(=O)O` (stereo not drawn), the LC retention time is 4.21 min.

Turning to `COc1cc(-c2[o+]c3cc(O)cc(O)c3cc2OC2OC(CO)C(O)C(O)C2O)cc(O)c1O` (stereo not drawn), the LC retention time is 13.3 min.
